Common to all, as to type: cell-based
One assay deals with T1, rTRPV4 (Rattus norvegicus, UniProt Q9ERZ8).
T1 construct: expressed in transfected cells; host or cells: HEK293, transient transfection, pMO vector
Kind of assay: whole-cell patch clamp selectivity, HEK 293 cells overexpressing rTRPV4. As to conditions: HEK293, with agonist, solutions without Ca2+, read-out: % of the current of rTRPV4 inhibited. How it is done:
(§1) Human embryonic kidney 293 (HEK293; catalog number CRL-1573) cells were cultured in Dulbecco's modified Eagle's medium (Invitrogen) supplemented with 10% fetal bovine serum and 1% penicillin-streptomycin at 37° C. and 5% CO2. Constructs cloned in pMO (a pcDNA3-modified vector) were co-transfected with GFP-pMO, using Lipofectamine 2000 (Invitrogen) according to the manufacturer's instructions. Macroscopic currents in the whole-cell patch clamp configuration were recorded 18-24 h post-transfection. The extracellular solution contained 140 mM NaCl, 6 mM KCl, 2 mM MgCl2, 10 mM HEPES, and 10 mM glucose (pH 7.4). Pipettes were made of borosilicate glass (outer diameter, 1.5 mm; inner diameter, 1.10 mm; Sutter Instruments) and fire-polished with a resistance between 2.8 and 4.0 megaohms when filled with an intracellular solution that contained 140 mM CsCl, 5 mM EGTA, and 10 mM HEPES, pH 7.2. Currents were recorded with a Multiclamp 700B amplifier (Molecular Devices) using a 1-s ramp from −100 to 100 mV. […] Data were acquired with a sampling rate of 20 kHz, low-pass filtered (10 kHz), and analyzed offline using Clampfit v10.4.2.0 (Molecular Devices). […]

The target in a further assay is T2, mmTRPC6 (Mus musculus, UniProt Q61143).
T2 construct: expressed in transfected cells; host or cells: HEK293, transient transfection, pMO vector
T2 sequence (Q61143 1-930): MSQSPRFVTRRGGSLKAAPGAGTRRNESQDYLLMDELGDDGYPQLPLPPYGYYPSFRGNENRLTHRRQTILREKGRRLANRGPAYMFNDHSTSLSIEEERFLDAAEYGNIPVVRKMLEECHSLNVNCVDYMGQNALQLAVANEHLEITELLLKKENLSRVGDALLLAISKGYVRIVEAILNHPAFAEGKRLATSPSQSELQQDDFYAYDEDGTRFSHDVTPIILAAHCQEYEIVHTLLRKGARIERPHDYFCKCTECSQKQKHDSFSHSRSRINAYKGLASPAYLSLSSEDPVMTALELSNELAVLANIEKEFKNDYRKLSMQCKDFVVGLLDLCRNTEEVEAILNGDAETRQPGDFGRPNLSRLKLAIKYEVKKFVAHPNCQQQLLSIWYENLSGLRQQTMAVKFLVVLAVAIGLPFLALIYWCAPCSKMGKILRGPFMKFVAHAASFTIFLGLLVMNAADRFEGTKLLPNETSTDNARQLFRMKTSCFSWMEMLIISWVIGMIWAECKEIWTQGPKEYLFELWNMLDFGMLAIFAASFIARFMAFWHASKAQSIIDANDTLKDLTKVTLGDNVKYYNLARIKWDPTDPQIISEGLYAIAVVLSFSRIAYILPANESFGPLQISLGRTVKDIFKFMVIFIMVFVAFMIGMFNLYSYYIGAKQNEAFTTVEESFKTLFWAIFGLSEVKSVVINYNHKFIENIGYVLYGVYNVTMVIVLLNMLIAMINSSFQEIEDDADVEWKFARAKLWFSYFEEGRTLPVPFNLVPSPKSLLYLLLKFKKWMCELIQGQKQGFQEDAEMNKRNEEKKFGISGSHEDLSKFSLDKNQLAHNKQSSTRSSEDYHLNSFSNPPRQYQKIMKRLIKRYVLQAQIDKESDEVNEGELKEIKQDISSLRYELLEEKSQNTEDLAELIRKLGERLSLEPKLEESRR
In words: whole-cell patch clamp selectivity, HEK 293 cells overexpressing mmTRPC6. As to conditions: HEK293, with agonist, solutions without Ca2+, read-out: % of the current of hTRPC6 inhibited. On the procedure: as §1
On the technique in general: In patch-clamp work, channel activity is measured electrically.

For the next assay, the target named is T3, rTRPV1 (Rattus norvegicus, UniProt O35433).
T3 construct: expressed in transfected cells; host or cells: HEK293, transient transfection, pMO vector
Kind of assay: whole-cell patch clamp selectivity, HEK 293 cells overexpressing rTRPV1. As to conditions: HEK293, with agonist, solutions without Ca2+, read-out: % of the current of rTRPV1 inhibited. On the procedure:
as §1

T3 sequence (O35433 whole entry): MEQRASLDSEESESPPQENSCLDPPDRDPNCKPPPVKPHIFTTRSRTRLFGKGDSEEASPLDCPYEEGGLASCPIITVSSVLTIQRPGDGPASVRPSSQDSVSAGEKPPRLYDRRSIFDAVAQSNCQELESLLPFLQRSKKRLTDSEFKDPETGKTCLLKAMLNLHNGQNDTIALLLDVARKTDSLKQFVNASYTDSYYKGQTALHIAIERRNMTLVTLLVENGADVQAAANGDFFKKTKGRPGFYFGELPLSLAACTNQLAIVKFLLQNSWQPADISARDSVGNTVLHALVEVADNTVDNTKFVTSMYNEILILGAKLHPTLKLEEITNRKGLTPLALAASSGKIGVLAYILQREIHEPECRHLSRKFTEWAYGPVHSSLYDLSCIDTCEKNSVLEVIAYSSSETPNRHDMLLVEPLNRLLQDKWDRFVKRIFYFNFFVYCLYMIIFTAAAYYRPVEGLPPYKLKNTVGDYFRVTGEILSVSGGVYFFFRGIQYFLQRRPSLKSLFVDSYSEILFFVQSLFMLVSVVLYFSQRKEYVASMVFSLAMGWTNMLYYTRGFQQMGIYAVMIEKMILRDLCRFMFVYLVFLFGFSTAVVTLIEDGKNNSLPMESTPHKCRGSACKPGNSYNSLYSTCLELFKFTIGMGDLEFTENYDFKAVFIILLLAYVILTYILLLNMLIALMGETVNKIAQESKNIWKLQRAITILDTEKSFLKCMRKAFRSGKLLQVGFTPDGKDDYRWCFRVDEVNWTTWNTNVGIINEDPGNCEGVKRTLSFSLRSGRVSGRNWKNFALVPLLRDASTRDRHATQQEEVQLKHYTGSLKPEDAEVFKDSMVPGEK
T1 sequence (Q9ERZ8 whole entry): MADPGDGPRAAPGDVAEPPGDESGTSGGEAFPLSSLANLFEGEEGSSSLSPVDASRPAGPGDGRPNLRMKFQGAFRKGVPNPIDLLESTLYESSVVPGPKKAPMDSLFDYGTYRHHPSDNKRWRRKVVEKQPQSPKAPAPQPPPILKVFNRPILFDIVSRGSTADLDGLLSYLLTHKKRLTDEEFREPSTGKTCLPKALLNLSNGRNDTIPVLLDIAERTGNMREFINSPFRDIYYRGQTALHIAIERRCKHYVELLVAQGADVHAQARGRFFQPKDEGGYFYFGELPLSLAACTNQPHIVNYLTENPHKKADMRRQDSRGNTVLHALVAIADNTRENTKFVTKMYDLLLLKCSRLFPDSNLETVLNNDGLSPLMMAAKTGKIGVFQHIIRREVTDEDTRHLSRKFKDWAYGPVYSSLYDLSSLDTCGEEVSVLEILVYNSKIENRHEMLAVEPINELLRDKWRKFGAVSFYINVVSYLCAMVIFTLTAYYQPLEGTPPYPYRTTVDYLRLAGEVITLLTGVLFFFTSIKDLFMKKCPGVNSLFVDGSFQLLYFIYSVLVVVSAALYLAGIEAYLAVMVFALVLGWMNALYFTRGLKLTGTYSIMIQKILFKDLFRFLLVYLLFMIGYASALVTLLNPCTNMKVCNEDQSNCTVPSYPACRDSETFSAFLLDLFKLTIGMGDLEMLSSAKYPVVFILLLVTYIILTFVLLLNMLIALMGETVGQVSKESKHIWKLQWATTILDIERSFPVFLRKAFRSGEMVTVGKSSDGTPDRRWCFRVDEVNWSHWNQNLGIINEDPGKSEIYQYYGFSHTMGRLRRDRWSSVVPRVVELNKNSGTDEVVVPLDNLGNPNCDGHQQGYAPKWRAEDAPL

For `CCNC(=O)c1cnn(-c2ccc(-n3ccc(Cl)c(Cl)c3=O)cc2)c1C(F)(F)F` [Compound 22], the inhibition at 10 µM on rTRPV4 is below 5%; on mmTRPC6, around 39%; at rTRPV1 it was below 5%.

The record behind these values is patent publication US20230265068A1, “TRANSIENT RECEPTOR POTENTIAL CANONICAL 3 INHIBITORS AND METHODS OF USE THEREOF” (University of Tennessee Research Foundation, priority 2020, published 2023).
